Reference: US20100173845A1, “USE OF FERTIRELIN AND DELTA-ENDORPHIN AS THERAPEUTIC AGENTS” (priority 2007, published 2010)
Where a SMILES comes first, the peptide text is derived from it. Where no end group is shown, it is not given here. [ ]: non-standard residue; d: D form. pGlu = O=C1CC[C@@H](C(=O)O)N1

What was measured:
[1] = tested on: HCMV strain AD169; test: HCMV plaque formation assay in MRC-5 cells; settings: for inhibition of HCMV plaque formation as compared to the virus control experiment: 10 micrograms per ml, 7-10 days, MRC-5 cells
[2] = tested on: HUVEC; test: Endothelial tube formation assay; format: cell-based, human; settings: 10 micrograms per ml; 20 hours
Excerpt: […] control wes vehicle only. […] Raw data were expressed as average tubule lenghs in pixels±standard deviation.

[3] = tested on: hepatitis B virus (HBV) ayw strain; test: HBV assay, secreted HBV DNA by TaqMan PCR in HepG2-2.2.15 cells; format: cell-based; settings: 10 micrograms per ml; six days; HBV DNA in supernatant
[4] = tested on: Primary Human endothelial cells (HUVEC); test: Endothelial cell migration assay; format: cell-based; settings: 10 micrograms per ml; 22 hours
Experimental: Thereafter, designated concentration of testing peptides−10 micrograms per ml−was added in duplicate wells.

[5] = tested on: murine spleen cells; test: Th1/Th2 cytokine profiling assay (Ovalbumin-restimulated spleen cells, CBA kit); format: cell-based, Balb/c mice; settings: 10 micrograms per ml, 72 hours; for production of IL-5, decreased by: numbers are decreases; for production of IL-5, decreased by / production of IFN-y, induced/increased by / production of IL-2, induced/increased by / production of TNF-alpha, induced by (increase): words state no change; for production of IFN-y, induced/increased by / production of IL-2, induced/increased by / production of TNF-alpha, induced by (increase): numbers are increases
Excerpt: The Balb/c mice (originated in 1923, it is a popular strain and is used in many different research disciplines. Also classified as an inbred from the production of 20 or more successive brother-sister matings, the Balb/c mouse is albino and small in size) were immunized on Days 1, 15, and 29 with Ovalbumin (Ovalbumin is the main protein found in egg white, commonly used to stimulate an immunological reaction in test animals) in PBS (5 micrograms/injection). On day 50, spleens of the mice were harvested (3 weeks after last boost with Ovalbumin). Cells were cultured (2×10^5/well in triplicate) and incubated with culture medium or test peptides−10 micrograms per ml−for 30 min. Thereafter, additional Ovalbumin was added to the cells at 10 micrograms/ml for in vitro restimulation of the cells. 72 hours later, cell supernatants were harvested and assayed using the Becton Dickinson Mouse Th1/Th2 Cytokine CBA Kit. This kit can be used to measure Interleukin-2 (IL-2), Interleukin-4 (IL-4), Interleukin-5 (IL-5), Interferon-γ (IFN-γ), and Tumor Necrosis Factor-α (TNF-α) protein levels in a single sample.

## Nc1nc(O)c2ncn(COC(CO)CO)c2n1 [Ganciclovir, reference compound]
[1]; HCMV in MRC-5 cells
  antiviral activity of positive control compound: expected levels of antiviral activity

## CCNC(=O)[C@@H]1CCCN1C(=O)[C@H](CCCNC(=N)N)NC(=O)[C@H](CC(C)C)NC(=O)CNC(=O)[C@H](Cc1ccc(O)cc1)NC(=O)[C@H](CO)NC(=O)[C@H](Cc1c[nH]c2ccccc12)NC(=O)[C@H](Cc1c[nH]cn1)NC(=O)[C@@H]1CCC(=O)N1 [Peptide 1] ([pGlu]HWSYGLRP-NHEt)
[2]
  inhibition of the tube formation of human endothelial cells: 11%
[3]
  inhibition of HBV replication as compared to the virus control infection: 47.1%
[4]
  inhibition of the migration of human endothelial cells: 26%
[5]; increase
  production of IL-4, induced/increased by: 139.7%
[5]
  production of IL-5, decreased by: did not significantly change
  production of IFN-y, induced/increased by: 114.7%
  production of IL-2, induced/increased by: 168.2%
  production of TNF-alpha, induced by (increase): 27.5%
[1]
  inhibition of HCMV plaque formation as compared to the virus control experiment: 2.1%

## YGGFMTSEKSQTPLVTLFKNAIIKNAY [Peptide 2]
[2]
  inhibition of the tube formation of human endothelial cells: 11%
[3]
  inhibition of HBV replication as compared to the virus control infection: 0%
[4]
  inhibition of the migration of human endothelial cells: no effect
[5]; decrease
  production of IL-4, decreased by: 31.5%
[5]
  production of IL-5, decreased by: 48.1%
  production of IFN-y, induced/increased by: did not significantly change
  production of IL-2, induced/increased by: did not significantly change
  production of TNF-alpha, induced by (increase): did not significantly change
[1]
  inhibition of HCMV plaque formation as compared to the virus control experiment: 0.7%
